Experiments:
[1] = physicochemical stability of the new solid forms
Text: Although there is good understanding of the physicochemistry of the cocrystal components, their elucidation a priori is almost impossible, as the interactions which determine the structure are relatively weak and the number of degrees of freedom for the optimization problem is immeasurable. For these reasons, the new solid forms disclosed herein are not obvious to a person skilled in the art. Further, the cocrystals and solvates of the present invention have shown physicochemical stability, allowing their use in pharmaceutical compositions. The present invention worked, among others, with the following coformers: aliphatic carboxylic acids, aromatic carboxylic acids, aromatic hydroxycarboxylic acids, aliphatic hydroxycarboxylic acids, aromatic heterocyclic amides, amino acid derivatives, polyphenols, alcohols such as xylitol and aromatic aminocarboxylic acids such as 3-aminobenzoic acid. A new solid form (NSF) which was stable with 3-hydroxybenzoic acid was found in the different assays of the present invention. The obtained NSF corresponds to a compound wherein the neutral coformer has a hydroxyl group and a carboxylic acid, and further contains a phenyl group as part of its structure.

[2] = cited from earlier work
[3] = neutral form, D+ isomer (6R,12R); cited from earlier work
[4] = in therapeutic concentrations; cited from earlier work

Structure (SMILES) | physicochemical stability of the solid form [1] | eliminated in faeces, predominantly as metabolites ([2]; faeces) | eliminated in urine, predominantly as metabolites ([2]; urine) | solubility in water [3] | plasmatic tadalafil bonded to proteins [4] [%]
CN1CC(=O)N2[C@H](c3ccc4c(c3)OCO4)c3[nH]c4ccccc4c3C[C@@H]2C1=O.O=C(O)c1cccc(O)c1 | stable |  |  |  | 
CN1CC(=O)N2[C@H](c3ccc4c(c3)OCO4)c3[nH]c4ccccc4c3C[C@@H]2C1=O [tadalafil] |  | approximately 61 % of the dose | approximately 36 % of the dose | almost insoluble in water | 94

Source: patent publication US9278970B2, “Co-crystals of tadalafil and a hydroxy-substituted benzoic acid coformer as phosphodiesterase type 5 inhibitors” (Laboratorios Senosiain S.A. de C.V., priority 2012, dated 2016)
